Values of other authors in patent publication US6346251B1 (priority 1999, dated 2002).

What was measured:
[1] = tested on: human epidermoid cells, virally infected with HSV-2
[2] = tested on: human epidermoid cells
[3] = tested on: cancer; conditions: Phase II testing

Compound	Trichothecene Concentrations, Protein Synthesis Inhibition 50% [1]	Trichothecene Concentrations, Protein Synthesis Inhibition 80% (PIC80) [1]	Trichothecene Concentrations, Protein Synthesis Inhibition 85% (PIC85) [1]	Trichothecene Concentrations, Protein Synthesis Inhibition 90% (PIC90) [1]	hyperactive protein synthesis inhibited [1]	Trichothecene Concentrations, PIC100 max [2]	concentrations that did not reduce cell viability [2]	nontoxic zone [2]	safe level [2]	hematologic toxicity [3]	tumor response [3]
CC(=O)OC[C@]12CCC(C)=C[C@H]1O[C@@H]1[C@H](O)[C@@H](OC(C)=O)[C@@]2(C)[C@]12CO2 [DAS]	2.3 ng/mL	4.0 ng/mL	4.2 ng/mL	4.5 ng/mL	~99%	200 ng/mL	up to 200 ng/ml	< 200 ng/mL	200 ng/mL	–	–
CC(=O)OC[C@]12CCC(C)=C[C@H]1O[C@@H]1[C@H](O)[C@@H](OC(C)=O)[C@@]2(C)[C@]12CO2 [Anguidine]	–	–	–	–	–	–	–	–	–	considerable hematologic toxicity	low tumor response
